{"source": "patent US11612580B2", "about": "“Compositions for inhibiting 3′ repair exonuclease 2 and methods of screening for such compositions” (THE BOARD OF REGENTS OF THE UNIVERSITY OF TEXAS SYSTEM, priority 2017, dated 2023)", "key": {"[1]": {"test_system": "msh2^−/− cells", "assay": "puro(A)10 polymerase slippage assay, puromycin resistant colonies", "format": "cell-based, mouse", "settings": "msh2^−/− cells with puro(A)10 reporter; 10 μM TREX2 inhibitor with puromycin; colonies counted about day 10; DMSO versus compounds p<0.02 (FIGS. 8B, 8C)"}, "[2]": {"test_system": "mouse embryonic stem (ES) cells", "assay": "reduction of mutations in mouse embryonic stem (ES) cells", "format": "cell-based", "settings": "hits from Chembridge Diverset screen", "from_the_text": "Assays as described here were used to screen a Chembridge Diverset library (30,000 compounds). […] These small molecules are: 4-benzoyl-2-methyphenyl (2-nitrophenoxy) acetate; N-benzyl-2-([bis(furan-2-yl)-1,2,4-triazin-3-yl] sulfanyl) acetamide; 6-(benzylcarbamoyl)-1-methycyclohex-3-ene-1-carboxylic acid; 8-(phenylamino)naphthalene-1-sulfonic acid; and benzyl 6-(furan-2-yl)-3-methyl-4-oxo-4,5,6,7-tetrahydro-1H-indole-2-carboxylate. […] TX2Is appear to be nontoxic to cells and TREX2-deletion was asymptomatic for >50% of life span."}}}
{"smiles": "CC1(C(=O)O)CC=CCC1C(=O)NCc1ccccc1", "note": "(stereo not drawn) [Compound 11, 6-(benzylcarbamoyl)-1-methycyclohex-3-ene-1-carboxylic acid]", "values": [{"measurement": "spontaneous polymerase slippage (fraction of puromycin resistant cells)", "setting": "[1]", "value": "reduce spontaneous polymerase slippage"}, {"measurement": "mutations in mouse embryonic stem (ES) cells", "setting": "[2]", "value": "reduce a range of mutations"}]}
{"smiles": "Cc1cc(C(=O)c2ccccc2)ccc1OC(=O)COc1ccccc1[N+](=O)[O-]", "note": "[Compound 1, 4-benzoyl-2-methyphenyl (2-nitrophenoxy) acetate]", "values": [{"measurement": "spontaneous polymerase slippage (fraction of puromycin resistant cells)", "setting": "[1]", "value": "reduce spontaneous polymerase slippage"}, {"measurement": "mutations in mouse embryonic stem (ES) cells", "setting": "[2]", "value": "reduce a range of mutations"}]}
{"smiles": "Cc1c(C(=O)OCc2ccccc2)[nH]c2c1C(=O)CC(c1ccco1)C2", "note": "(stereo not drawn) [benzyl 6-(furan-2-yl)-3-methyl-4-oxo-4,5,6,7-tetrahydro-1H-indole-2-carboxylate]", "values": [{"measurement": "mutations in mouse embryonic stem (ES) cells", "setting": "[2]", "value": "reduce a range of mutations"}]}
{"smiles": "O=S(=O)(O)c1cccc2cccc(Nc3ccccc3)c12", "note": "[Compound 6, 8-(phenylamino)naphthalene-1-sulfonic acid]", "values": [{"measurement": "spontaneous polymerase slippage (fraction of puromycin resistant cells)", "setting": "[1]", "value": "reduce spontaneous polymerase slippage"}, {"measurement": "mutations in mouse embryonic stem (ES) cells", "setting": "[2]", "value": "reduce a range of mutations"}]}
{"smiles": "O=C(CSc1nnc(-c2ccco2)c(-c2ccco2)n1)NCc1ccccc1", "note": "[Compound 10, N-benzyl-2-([bis(furan-2-yl)-1,2,4-triazin-3-yl]sulfanyl) acetamide]", "values": [{"measurement": "spontaneous polymerase slippage (fraction of puromycin resistant cells)", "setting": "[1]", "value": "reduce spontaneous polymerase slippage"}, {"measurement": "mutations in mouse embryonic stem (ES) cells", "setting": "[2]", "value": "reduce a range of mutations"}]}
